Test results published in patent US20070015777A1, “Use of Inhibitors of the Ubiquitin Proteasome Pathway as a Method of Increasing Contractility of the Heart” (Myogen, Inc., priority 2005, published 2007).
“Also recorded” adds a separate entry of the source. Peptide text beside a SMILES is read from it. * marks the point of attachment. Cbz = O=C(OCc1ccccc1)*

How the values were obtained:
[1] = system: atrial natriuretic factor (ANF) secretion; experiment: Competitive ANF ELISA on media supernatants of phenylephrine-treated NRVM; type: cell-based; conditions: Rattus norvegicus, 48 h, phenylephrine 20 μM, 48 hours (FIG. 4), read-out: EC50 for suppression of PE-induced ANF secretion
Experimental: (§1) NRVM culture. For preparations of neonatal rat ventricular myocytes (NRVMs), hearts were removed from 10-20 newborn (1-2 days old) Sprague-Dawley rats. Isolated ventricles were pooled, minced and dispersed by three 20-minute incubations at 37° C. in Ads buffer (116 mM NaCl, 20 mM HEPES, 10 mM NaH2PO4, 5.5 mM glucose, 5 mM KCl, 0.8 mM MgSO4, pH 7.4) containing collagenase Type 11 (65 units/ml, Worthington) and pancreatin (0.6 mg/ml, GibcoBRL). Dispersed cells were applied to a discontinuous gradient of 40.5% and 58.5% (v/v) Percoll (Amersham Biosciences), centrifuged, and myocytes collected from the interface layer. […]
(§2) ANF and toxicity assays. ANF in media supernatants was quantitated by competitive ELISA using a monoclonal anti-ANF antibody (Biodesign) and a biotinylated ANF peptide (Phoenix Peptide). Total cellular protein was quantitated by standard Coomassie dye-binding assay; cells were lysed in protein assay reagent (BioRad) and absorbance at A595 was measured after 1 hour. Cytotoxicity was quantitated by measuring release of adenylate kinase (AK) from cultured NRVM into culture medium (ToxiLight kit, Cambrex).

[2] = system: NRVM; experiment: Cytotoxicity assay (adenylate kinase release, ToxiLight) in NRVM; type: cell-based, rat; conditions: 48 hours, at MG132 concentrations that suppress hypertrophy (FIG. 4)
Experimental: as §1, §2

[3] = system: alpha myosin heavy chain; experiment: Western blot analysis of NRVM: alpha myosin heavy chain; type: cell-based, rat; conditions: with or without phenylephrine 20 μM, MG132 370, 1500 and 3000 nM, 48 hours, Western blot (FIG. 3)
Experimental: as §1
(§3) Western Blots. […] Protein concentrations were determined by the bicinchoninic acid method (BCA Protein Assay, Pierce) with bovine serum albumin as a standard. Equivalent quantities of protein samples (10 μg/lane) were denatured in Laemmli buffer and resolved on Tris-glycine SDS-PAGE gels (4-20% acrylamide gradient, Invitrogen). […]

[4] = system: neonatal rat ventricular myocytes (NRVMs); conditions: NRVM cell culture model, Dreger 2002; cited from earlier work
[5] = system: MCIP1 protein; experiment: Western blot analysis for MCIP1 protein in NRVM; type: cell-based, rat; conditions: range of MG132 concentrations, 48 hours (FIG. 6)
Experimental: as §1, §3

[6] = system: SERCA; experiment: Western blot analysis of NRVM: SERCA; type: cell-based, rat; conditions: with or without phenylephrine 20 μM, MG132 370, 1500 and 3000 nM, 48 hours, Western blot (FIG. 3)
Experimental: as §1, §3

[7] = system: β-myosin heavy chain protein; experiment: Cytoblot assay for beta myosin heavy chain protein content in phenylephrine-treated NRVM; type: cell-based, rat; conditions: phenylephrine 20 μM, MG132 100 and 1000 nM, 48 hours, cytoblot (FIG. 2)
Experimental: as §1, with “layer. Myocyte preparations were pre-plated in Dulbecco's modified Eagle's medium (DMEM, Cellgro), supplemented with 10% (v/v) charcoal stripped fetal bovine serum (FBS, HyClone), 4 mM L-glutamine and 1% penicillin/streptomycin for 1 hour at 37° C. to reduce fibroblast contamination, then plated at a density of 2.5×10^5 cells per well on 6-well tissue culture plates (or 10,000 cells/well on 96-well tissue culture plates) coated with a 0.2% (w/v) gelatin solution.” for “layer.”
(§4) NRVM protein quantitation by cytoblot (alpha myosin, beta myosin, MCIP1). […] Plates were read in a 96-well luminometer (Packard Fusion).

[8] = system: phospholamban (PLB); experiment: Western blot analysis of NRVM: phospholamban; type: cell-based, rat; conditions: with or without phenylephrine 20 μM, MG132 370, 1500 and 3000 nM, 48 hours, Western blot (FIG. 3)
Experimental: as §1, §3

[9] = system: alpha myosin heavy chain protein; experiment: Cytoblot assay for alpha myosin heavy chain protein content in NRVM; type: cell-based, rat; conditions: MG132 100 nM, 48 hours, cytoblot (FIG. 1)
Experimental: as §1, with “layer. Myocyte preparations were pre-plated in Dulbecco's modified Eagle's medium (DMEM, Cellgro), supplemented with 10% (v/v) charcoal stripped fetal bovine serum (FBS, HyClone), 4 mM L-glutamine and 1% penicillin/streptomycin for 1 hour at 37° C. to reduce fibroblast contamination, then plated at a density of 2.5×10^5 cells per well on 6-well tissue culture plates (or 10,000 cells/well on 96-well tissue culture plates) coated with a 0.2% (w/v) gelatin solution.” for “layer.”
as §4

[10] = system: modulatory calcineurin interacting protein 1 (MCIP1); experiment: Cytoblot assay for MCIP1 protein content in NRVM; type: cell-based, rat
Experimental: as §1, with “layer. Myocyte preparations were pre-plated in Dulbecco's modified Eagle's medium (DMEM, Cellgro), supplemented with 10% (v/v) charcoal stripped fetal bovine serum (FBS, HyClone), 4 mM L-glutamine and 1% penicillin/streptomycin for 1 hour at 37° C. to reduce fibroblast contamination, then plated at a density of 2.5×10^5 cells per well on 6-well tissue culture plates (or 10,000 cells/well on 96-well tissue culture plates) coated with a 0.2% (w/v) gelatin solution.” for “layer.”
as §4

[11] = system: total ubiquitinated protein; experiment: Western blot analysis for total ubiquitinated protein in NRVM; type: cell-based, rat; conditions: range of MG132 concentrations, 48 hours (FIG. 6)
Experimental: as §1, §3

[12] = system: nuclear factor of activated T cells (NFAT); experiment: Calcineurin-dependent nuclear import of GFP-NFAT in adenovirus-infected NRVM (immunofluorescence); type: cell-based, rat; conditions: NRVM infected with adenovirus encoding activated calcineurin and GFP-NFAT, MG132 1 μM (FIG. 7)
Experimental: NRVM culture. For preparations of neonatal rat ventricular myocytes (NRVMs), hearts were removed from 10-20 newborn (1-2 days old) Sprague-Dawley rats. Isolated ventricles were pooled, minced and dispersed by three 20-minute incubations at 37° C. in Ads buffer (116 mM NaCl, 20 mM HEPES, 10 mM NaH2PO4, 5.5 mM glucose, 5 mM KCl, 0.8 mM MgSO4, pH 7.4) containing collagenase Type 11 (65 units/ml, Worthington) and pancreatin (0.6 mg/ml, GibcoBRL). Dispersed cells were applied to a discontinuous gradient of 40.5% and 58.5% (v/v) Percoll (Amersham Biosciences), centrifuged, and myocytes collected from the interface layer. Myocyte preparations were pre-plated in Dulbecco's modified Eagle's medium (DMEM, Cellgro), supplemented with 10% (v/v) charcoal stripped fetal bovine serum (FBS, HyClone), 4 mM L-glutamine and 1% penicillin/streptomycin for 1 hour at 37° C. to reduce fibroblast contamination, then plated at a density of 2.5×10^5 cells per well on 6-well tissue culture plates (or 10,000 cells/well on 96-well tissue culture plates) coated with a 0.2% (w/v) gelatin solution. After 24 hours in culture, myocyte preparations were transferred to serum-free maintenance medium (DMEM supplemented with 0.1% (v/v) Nutridoma (Roche), L-glutamine and penicillin/streptomycin). Where indicated, NRVM were treated with test compounds for a period of 48 hrs. […]

[13] = system: phospho-phospholamban; experiment: Western blot analysis of NRVM: phospho-phospholamban; type: cell-based, rat; conditions: with or without phenylephrine 20 μM, MG132 370, 1500 and 3000 nM, 48 hours, Western blot (FIG. 3)
Experimental: as §1, §3

CC(C)C[C@@H](C=O)NC(=O)[C@H](CC(C)C)NC(=O)[C@H](CC(C)C)NC(=O)OCc1ccccc1 [MG132] (Cbz-Leu-Leu-Leu-aldehyde)
EC50 [1]: ~0.02 µM | cytotoxicity (release of adenylate kinase) [2]: no release of adenylate kinase (AK); also recorded: non-cytotoxic concentrations | expression of alpha myosin heavy chain (Western blot) [3]: increases expression of SERCA, alpha myosin heavy chain | anti-hypertrophic effect (β-MyHC levels, cell size and morphology, BNP, sarcomeric actin) [4]: anti-hypertrophic | MCIP1 protein expression (Western blot) [5]: increases cardiac modulatory calcineurin interacting protein 1 (MCIP1) protein expression | expression of SERCA protein [6]: increased in vitro expression of cardiac SERCA protein; also recorded: increases expression of SERCA | β-myosin heavy chain protein content [7]: effectively suppressed adrenergic agonist (phenylephrine) dependent upregulation of beta myosin heavy chain protein; also recorded: suppresses hypertrophic agonist-dependent increases in cardiac beta myosin heavy chain protein expression | expression of phospholamban (PLB) [8]: decreased expression of the SERCA inhibitory protein, phospholamban (PLB); also recorded: decreases expression of cardiac phospholamban | alpha myosin heavy chain protein content [9]: significantly increased expression of alpha myosin heavy chain protein; also recorded: increases cardiac alpha myosin heavy chain protein expression | EC50 ([10]; Rattus norvegicus, 48 hours, cytoblot (FIG. 5), read-out: EC50 for induction of cardiac MCIP1 expression): 0.01 µM | MCIP1 protein expression (cytoblot) ([10]; range of MG132 concentrations, 48 hours (FIG. 5)): dose-dependent increase in expression of modulatory calcineurin interacting protein 1 (MCIP1); also recorded: increases cardiac modulatory calcineurin interacting protein 1 (MCIP1) protein expression | total ubiquitinated protein [11]: induced accumulation of ubiquitinated protein | calcineurin-dependent nuclear import of GFP-NFAT [12]: blocked the ability of constitutively activated calcineurin to promote nuclear import of NFAT; also recorded: suppresses calcineurin-dependent nuclear import | PLB phosphorylation (phospho-phospholamban) [13]: dose-dependent increase in PLB phosphorylation; also recorded: increases expression of SERCA, alpha myosin heavy chain and phospho-phospholamban
